Laboratory results reported in patent US9676771B2, “Compounds for inhibiting drug-resistant strains of HIV-1 integrase” (priority 2013, dated 2017).
Read-outs that look alike come from different tables or passages of the source.

What was measured:
HIV-1 integrase = HIV-1 integrase (Human immunodeficiency virus type 1 group M subtype B, UniProt P12497); assay: biochemical; format: biochemical
Outline: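 Compounds or DMSO added to 20 nM DNA and 400 nM integrase in 50 mM MOPS pH 7.2, 7.5 mM MgCl2, 14 mM 2-mercaptoethanol; 2 h at 37° C, quenched with formamide/SDS loading buffer. Products resolved on gels, imaged and quantified by densitometry.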

in vitro = format: cell-based, human; settings: human, 50% reduction in the level of ATP in HOS cells
Outline: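 Cells exposed to compounds over a concentration range for 48 hrs at 37° C. Viability read as cellular ATP by luciferase (ATPlite) luminescence after lysis, normalised to untreated cells; CC50 derived by regression fit.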

[1] = test system: HIV-1 constructs containing wild-type IN; assay: microbe, parasite or virus in culture; format: cell-based
[2] = test system: HIV-1 constructs containing mutant IN G118R; assay: microbe, parasite or virus in culture; format: cell-based; settings: for EC50: Human immunodeficiency virus 1
Method: (§1) Single-Round HIV-1 Infectivity Assay.
(§2) Human embryonyl kidney cell culture cell line 293 was acquired from the American type Culture Collection (ATCC).
(§3) […]. […] The virus-containing supernatants were then harvested, clarified by low-speed centrifugation, filtrated, and diluted for preparation in infection assays. […] After compound incorporation and activation in the cell, 100 μL of virus-stock diluted to achieve a maximum luciferase signal between 0.2 and 1.5 RLUs was added to each well and further incubated at 37° C. for 48 hrs. […] Activity was normalized to infectivity in the absence of target compounds. KaleidaGraph (Synergy Software, Reading, Pa.) was used to perform regression analysis on the data. EC50 values were determined from the fit model.
(§4) pNLNgoMIVR^−ΔEnv.LUC has been described previously (Zhao et al. 2008). The integrase codon reading frame was removed from pNLNgoMIVR^−ΔEnv LUC (between KpnI and SalI sites) and placed between the KpnI and SalI sites of pBluescript II KS+. Using that construct as the wild-type template, we prepared the following HIV-1 Integrase-resistant mutants via the QuikChange II XL (Stratagene, La Jolla, Calif.) site-directed mutagenesis protocol: H51Y, T66I, E92Q, G118R, Y143R, Q148H, Q148K, N155H, R263K, G140S+Q148H, G140A+Q148K, E138K+Q148K, and H51Y+R263K. The following sense with cognate antisense (not shown) oligonucleotides (Integrated DNA Technologies, Coralville, Iowa) were used in the mutagenesis: H51Y, 5′-[…]-3; T66I, 5′-[…]-3′; E92Q, 5′-[…]-3′; G118R, 5′-[…]-3′; E138K, 5′-[…]-3; G140A, 5′-[…]-3; G140S, 5′-[…]-3′; Y143R, 5′-[…]-3′; Q148H, 5′-[…]-3′; Q148K, 5′-[…]-3; N155H, 5′-[…]-3′; R263K 5′-[…]-3′. The double mutation G140S+Q148H was constructed by using the previously generated Q148H mutant and the appropriate oligonucleotide for the 2nd mutation, G140S. The double mutation G140A+Q148K was made by using the Q148K mutant and the appropriate oligonucleotide for the 2nd mutation, G140A. The double mutation E138K+Q148K was made by using the Q148K mutant and the appropriate oligonucleotide for the 2nd mutation, E138K. The double mutation H51Y+R263K was constructed by using the previously generated H51Y mutant and the appropriate oligonucleotides for the 2nd mutation, R263K. The DNA sequence of each construct was verified independently by DNA sequence determination. The mutant integrase coding sequences from pBluescript II KS+ were then subcloned into pNLNgoMIVR^−ΔEnv LUC (between the KpnI and SalI sites) to produce the full-length mutant HIV-1 Integrase constructs. These DNA sequences were additionally checked independently by DNA sequence determination.

[3] = test system: HIV-1 constructs containing mutant IN R263K; assay: Single-round HIV-1 infectivity assay, IN mutant R263K; format: cell-based; settings: Human immunodeficiency virus 1
Method: as §1, §2, §3, §4

[4] = Table 4, 3′-processing, read-out: IC50 (3^+-Processing)
[5] = Table 4, strand transfer, read-out: IC50 (Strand Transfer)
[6] = Human immunodeficiency virus 1, read-out: EC50 (nM), Table 9, WT, normal 5% serum
[7] = Human immunodeficiency virus 1, Table 3, WT IN, read-out: EC50 (nM, WT)
[8] = Table 6, read-out: EC50 (nM, IN Mutants) G118R
[9] = Table 6, read-out: EC50 (nM, IN Mutants) R263K
[10] = Table 7, 3′-processing, read-out: IC50 (μM) 3′-P
[11] = Table 7, strand transfer, read-out: IC50 (μM) ST
[12] = Human immunodeficiency virus 1, Table 8, WT IN, read-out: EC50 (nM, WT)
[13] = Table 8, read-out: EC50 (nM, IN mutants) G118R
[14] = Table 8, read-out: EC50 (nM, IN mutants) R263K
[15] = Table 10, strand transfer, read-out: IC50 (nM, ST)

| Compound | EC50 [1, 6] [nM] | IC50 (HIV-1 integrase; [10]) [µM] | IC50 (HIV-1 integrase; [11]) [µM] | CC50 (in vitro; Table 8) [nM] | EC50 [1, 12] [nM] | EC50 [2, 13] [nM] | EC50 [3, 14] [nM] | further results |
| --- | --- | --- | --- | --- | --- | --- | --- | --- |
| COC(=O)CNc1c(C(=O)NCc2ccc(F)cc2F)c(=O)n(O)c2ncccc12 [XZ379, Methyl 2-((3-((2,4-difluorobenzyl)carbamoyl)-1-hydroxy-2-oxo-1,2-dihydro-1,8-naphthyridin-4-yl)amino)acetate] | 3.8 ± 1.2 | – | – | – | – | – | – | IC50 (HIV-1 integrase; [4]): 0.71 ± 0.1 µM; IC50 (HIV-1 integrase; [5]): 0.021 ± 0.011 µM; CC50 (in vitro; Table 3): > 250000 nM; CC50 (in vitro; Table 6): > 250000 nM; EC50 [1, 7]: 3.8 ± 1.2 nM; Si (selectivity index) ([1]; Table 3, ratio of CC50 to EC50): >25,000; EC50 [2, 8]: 41.3 ± 18 nM; EC50 [3, 9]: 25.9 ± 8.2 nM |
| O=C(NCc1ccc(F)cc1F)c1c(O)c2cccnc2n(O)c1=O [XZ351, N-(2,4-difluorobenzyl)-1,4-dihydroxy-2-oxo-1,2-dihydro-1,8-naphthyridine-3-carboxamide] | – | – | – | – | – | – | – | IC50 (HIV-1 integrase; Table 1, 3′-processing, read-out: IC50 Values 3′-Processing): 1.2 ± 0.2 µM; IC50 (HIV-1 integrase; Table 1, strand transfer, read-out: IC50 Values Strand transfer): 0.055 ± 0.008 µM; CC50 (in vitro; Table 2): 137000 nM; CC50 (in vitro; Table 3): 137000 ± 20100 nM; CC50 (in vitro; Table 6): 137000 ± 20100 nM; SI [1]: 22,767; Si (selectivity index) [1]: 22,032; EC50 ([1]; Human immunodeficiency virus 1, Table 2, cells infected with lentiviral vector harboring WT IN, read-out: EC50): 6 nM; EC50 [1, 7]: 6.2 ± 2.9 nM; Integrase Mutants G118R, fold-change in EC50 relative to WT [2]: 6 x; EC50 [2, 8]: 107 ± 40 nM; EC50 [3, 9]: 35.9 ± 7.6 nM |
| COC(=O)CCc1cnc2c(c1)c(N)c(C(=O)NCc1ccc(F)cc1F)c(=O)n2O [XZ434, Methyl 3-(5-amino-6-((2,4-difluorobenzyl)carbamoyl)-8-hydroxy-7-oxo-7,8-dihydro-1,8-naphthyridin-3-yl)propanoate] | 0.7 ± 0.2 | 2.9 ± 0.6 | 0.0018 ± 0.0002 | > 250000 | 0.67 | 4.8 | 0.5 | – |
| Nc1c(C(=O)NCc2ccc(F)cc2F)c(=O)n(O)c2ncc(CCCCCCO)cc12 [XZ426, 4-Amino-N-(2,4-difluorobenzyl)-1-hydroxy-6-(6-hydroxyhexyl)-2-oxo-1,2-dihydro-1,8-naphthyridine-3-carboxamide] | 2.3 ± 0.6 | 19 ± 1 | 0.00059 ± 0.00011 | > 250000 | 2.33 | 6.4 | 8.4 | – |
| CC(=O)OCCCc1cnc2c(c1)c(N)c(C(=O)NCc1ccc(F)cc1F)c(=O)n2O [XZ424, 3-(5-Amino-6-((2,4-difluorobenzyl)carbamoyl)-8-hydroxy-7-oxo-7,8-dihydro-1,8-naphthyridin-3-yl)propyl acetate] | – | 14.3 ± 2.1 | 0.0102 ± 0.0016 | > 250000 | 1.4 | 5.9 | 1.75 | – |
| Nc1c(C(=O)NCc2ccc(F)cc2F)c(=O)n(O)c2ncc(CCCO)cc12 [XZ423, 4-Amino-N-(2,4-difluorobenzyl)-1-hydroxy-6-(3-hydroxypropyl)-2-oxo-1,2-dihydro-1,8-naphthyridine-3-carboxamide] | – | 4.3 ± 0.6 | 0.0113 ± 0.0027 | > 250000 | 3.1 | 10 | 2.5 | – |
| CC(=O)OCCNc1c(C(=O)NCc2ccc(F)cc2F)c(=O)n(O)c2ncccc12 [XZ402, 2-((3-((2,4-difluorobenzyl)carbamoyl)-1-hydroxy-2-oxo-1,2-dihydro-1,8-naphthyridin-4-yl)amino)ethyl acetate] | 4.5 ± 1.5 | – | – | – | – | – | – | IC50 (HIV-1 integrase; [4]): 5.3 ± 0.5 µM; IC50 (HIV-1 integrase; [5]): 0.027 ± 0.006 µM; CC50 (in vitro; Table 3): > 250000 nM; CC50 (in vitro; Table 6): > 250000 nM; EC50 [1, 7]: 4.5 ± 1.5 nM; Si (selectivity index) ([1]; Table 3, ratio of CC50 to EC50): >25,000; EC50 [2, 8]: 43.5 ± 11.2 nM; EC50 [3, 9]: 16 ± 5.1 nM |
| O=C(NCc1ccc(F)cc1F)c1c(O)c2c(CO)ccnc2n(O)c1=O [XZ440, N-(2,4-Difluorobenzyl)-1,4-dihydroxy-5-(hydroxymethyl)-2-oxo-1,2-dihydro-1,8-naphthyridine-3-carboxamide] | – | – | – | > 250000 | 7.3 | 23 | 4 ± 1.4 | IC50 (HIV-1 integrase; [15]): 0.0145 ± 0.0008 µM |
| C[C@@H]1CCO[C@H]2Cn3cc(C(=O)NCc4ccc(F)cc4F)c(=O)c(O)c3C(=O)N12 [DTG, dolutegravir, reference compound] | – | – | – | > 250000 | 1.6 | 13 ± 5 | 11.3 | IC50 (HIV-1 integrase; [15]): 0.0124 ± 0.0026 µM |
| O=C(NCc1ccc(F)cc1F)c1c(NCCO)c2cc(CCCCCO)cnc2n(O)c1=O [XZ437, N-(2,4-Difluorobenzyl)-1-hydroxy-4-((2-hydroxyethyl)amino)-6-(5-hydroxypentyl)-2-oxo-1,2-dihydro-1,8-naphthyridine-3-carboxamide] | – | 4 ± 0.5 | 0.0025 ± 0.0002 | > 250000 | 13 | 23.9 | 18.1 | – |
| Nc1c(C(=O)NCc2ccc(F)cc2F)c(=O)n(O)c2ncc(CCCCCCCCO)cc12 [XZ433, 4-Amino-N-(2,4-difluorobenzyl)-1-hydroxy-6-(8-hydroxyoctyl)-2-oxo-1,2-dihydro-1,8-naphthyridine-3-carboxamide] | – | 32 ± 6 | 0.0054 ± 0.0008 | > 250000 | 3.7 | 11.1 | 3.8 | – |
| Nc1c(C(=O)NCc2ccc(F)cc2F)c(=O)n(O)c2ncc(CCCCCO)cc12 [XZ419, 4-Amino-N-(2,4-difluorobenzyl)-1-hydroxy-6-(5-hydroxypentyl)-2-oxo-1,2-dihydro-1,8-naphthyridine-3-carboxamide] | 1.3 ± 0.2 | 8.2 ± 1.2 | 0.0027 ± 0.0004 | > 250000 | 1.3 | 5.3 | 2.6 | – |
| COC(=O)CCc1cnc2c(c1)c(NCCO)c(C(=O)NCc1ccc(F)cc1F)c(=O)n2O [XZ438, Methyl 3-(6-((2,4-difluorobenzyl)carbamoyl)-8-hydroxy-5-((2-hydroxyethyl)amino)-7-oxo-7,8-dihydro-1,8-naphthyridin-3-yl)propanoate] | – | 3.2 ± 0.3 | 0.0031 ± 0.0003 | > 250000 | 4.1 ± 1 | 4.8 | 6.5 | – |
